How the values were obtained:
[1] = system: GR target genes in A549 cells; test: RT-qPCR of endogenous GR target genes in A549 cells; type: cell-based, human; conditions: 2 μM added 1 h prior to 100 nM dex
Experimental: RNA was isolated using Trizol (Invitrogen) according to the manufacturer's instructions. Reverse transcription reaction was performed using iScript (Biorad) according to specifications with 0.8 μg of total RNA as template. Quantitative PCR amplification of the resulting cDNA was performed on a Roche LightCycler 480 using SYBR green I master mix (Roche). mRNA levels were normalized to the level of β-actin mRNA. Primer sequences are specified below in Tables 6 and 7.
The results as shown in FIGS. 21A-21E generally highlight that G9a and GLP act as coactivators for a subset of endogenous GR target genes. FIG. 21A is an immunoblot showing GLP, G9a and tubulin protein levels in whole cell extracts from A549 cells that were transduced with a control lentivirus encoding a non-specific shRNA (shNS) or lentivirus encoding an shRNA targeting GLP (shGLP). […] Results shown are mean±SEM for five independent experiments. p-value was calculated using a paired t-test. *p≤0.05, **p≤0.01. For FIGS. 21F-1, 21F-2, 21F-3, 21F-4, 21F-5, 21F-6, 21F-7, and 21F-8, mRNA levels for the indicated GR target genes were determined as in FIGS. 21D-1, 21D-2, 21D-3, 21D-4, 21D-5, 21D-6, 21D-7, and 21D-8, using A549 cells which were not transfected with siRNA. […] Results shown are mean±SEM for at least four independent experiments. p-value was calculated using a paired t-test. *p≤0.05, **p≤0.01.

EHMT2 phosphorylation = test: Phosphorylation of EHMT2 in NALM-6 cells (pan ph-T immunoprecipitation, EHMT2 immunoblot); type: cell-based, human; conditions: NALM-6, 0.75 μM ZM447439, 24 h
Experimental: Cells were treated as indicated, and cell extracts were prepared in RIPA buffer ([…] Tris-HCl, pH 8, 150 mM NaCL, 1 mM EDTA, 1% NP-40, and 0.25% deoxycholate) supplemented with protease inhibitor tablets (Roche Molecular Biochemicals) and phosphatase inhibitors (1 mM NaF, 1 mM Na3VO4, and 1 mM β-glycerophosphate). Protein extracts were incubated overnight at 4° C. with shaking with 1 μg of antibodies against EHMT2 (Sigma G6919), EHMT1 (Millipore 09-078), or pan phospho-threonine (Millipore AB1607). Protein A/G plus agarose beads (Santa Cruz sc-2003) were added, and the mixture was incubated 2 h at 4° C. The immunoprecipitates were separated on SDS-PAGE. […]
FIGS. 48A, 48B, 48C, 48D, 48E, and 48F show the effect of AURKB inhibitors on EHMT2 phosphorylation and dex-induced cell death. […] In each condition, the value measured with dex was normalized to the fluorescence value measured with ethanol. Percentage of survival is shown as the mean±SEM of 4 independent experiments and p-values for individual dex concentrations were calculated using a paired t-test. *p≤0.05, **p≤0.01, * * *p≤0.001. […] EC50s were calculated as the concentration at which half the cells remained alive, compare to vehicle controls. Error bars depict the SEM of 4 independent experiments and p-value was calculated to compare ZM treatment to DMSO using a paired t-test **p≤0.01, * * *p≤0.001. […]

COc1cc2c(Nc3ccc(NC(=O)c4ccccc4)cc3)ncnc2cc1OCCCN1CCOCC1 [ZM447439, N-[4-[[6-methoxy-7-(3-morpholin-4-ylpropoxy)quinazolin-4-yl]amino]phenyl]benzamide]
induction of FKBP5, FOXO1 and CITED2 mRNAs by dex ([1]; G9a- and GLP-independent genes): not significantly altered | dex-induced CDH16, ENaCα, PPL, HSD11B2 and CDH1 mRNA levels ([1]; G9a/GLP-dependent genes): significant increases | phosphorylation of EHMT2 (EHMT2 phosphorylation): reduced

— patent US20200181284A1, “EPIGENETIC INHIBITORS FOR SENSITIZING HEMATOLOGIC OR OTHER MALIGNANCIES TO GLUCOCORTICOID THERAPY” (UNIVERSITY OF SOUTHERN CALIFORNIA, priority 2017, published 2020)
